Data: patent publication US20140377241A1, “BIOPREPARATION BALIS FOR THE PROPHYLAXIS AND TREATMENT OF INFECTIOUS DISEASES” (priority 2010, published 2014)
Read-outs that look alike come from different tables or passages of the source.

How the values were obtained:
[1] = tested on: B. subtilis VKPM B-8611; test: Sensitivity to antibiotics of the Bacillus type strains (inhibited growth area); assay type: cell-based
[2] = tested on: B. licheniformis VKPM B-8610; test: as above; assay type: cell-based, Bacillus licheniformis

## NCC[C@H](O)C(=O)N[C@@H]1C[C@H](N)[C@@H](O[C@H]2O[C@H](CN)[C@@H](O)[C@H](O)[C@H]2O)[C@H](O)[C@H]1O[C@H]1O[C@H](CO)[C@@H](O)[C@H](N)[C@H]1O [Amikacin]
[1]
  Diameter of the culture's inhibited growth area: 22 ± 0.3 mm
[2]; B. licheniformis VKPM B-8610
  Diameter of the culture's inhibited growth area: 17 ± 0.2 mm

## CC1(C)S[C@@H]2[C@H](NC(=O)[C@H](N)c3ccc(O)cc3)C(=O)N2[C@H]1C(=O)O [Amoxicillin]
[1]
  Diameter of the culture's inhibited growth area: 19 ± 0.2 mm
[2]; B. licheniformis VKPM B-8610
  Diameter of the culture's inhibited growth area: 16 ± 0.1 mm

## CC1(C)S[C@@H]2[C@H](NC(=O)[C@H](N)c3ccccc3)C(=O)N2[C@H]1C(=O)O [Ampicillin]
[1]
  Diameter of the culture's inhibited growth area: 11 ± 0.2 mm
[2]; B. licheniformis VKPM B-8610
  Diameter of the culture's inhibited growth area: ∘

## CC1(C)S[C@@H]2[C@H](NC(=O)[C@H](NC(=O)N3CCNC3=O)c3ccccc3)C(=O)N2[C@H]1C(=O)O [Azlocillin]
[1]
  Diameter of the culture's inhibited growth area: 19 ± 0.1 mm
[2]; B. licheniformis VKPM B-8610
  Diameter of the culture's inhibited growth area: 16 ± 0.1 mm

## CC1(C)S[C@@H]2[C@H](NC(=O)Cc3ccccc3)C(=O)N2[C@H]1C(=O)O [Benzylpenicillin]
[1]
  Diameter of the culture's inhibited growth area: 7 ± 0.1 mm
[2]; B. licheniformis VKPM B-8610
  Diameter of the culture's inhibited growth area: 3 ± 0.2 mm

## CC1(C)S[C@@H]2[C@H](NC(=O)C(C(=O)O)c3ccccc3)C(=O)N2[C@H]1C(=O)O (stereo partly shown) [Carbenicillin]
[1]
  Diameter of the culture's inhibited growth area: 23 ± 0.5 mm
[2]; B. licheniformis VKPM B-8610
  Diameter of the culture's inhibited growth area: 20 ± 0.1 mm

## Cn1nnnc1SCC1=C(C(=O)O)N2C(=O)[C@@H](NC(=O)[C@H](O)c3ccccc3)[C@H]2SC1 [Cefamandole]
[1]
  Diameter of the culture's inhibited growth area: 35 ± 0.3 mm
[2]; B. licheniformis VKPM B-8610
  Diameter of the culture's inhibited growth area: 15 ± 0.1 mm

## Cc1nnc(SCC2=C(C(=O)O)N3C(=O)[C@@H](NC(=O)Cn4cnnn4)[C@H]3SC2)s1 [Cefazolin]
[1]
  Diameter of the culture's inhibited growth area: 25 ± 0.2 mm
[2]; B. licheniformis VKPM B-8610
  Diameter of the culture's inhibited growth area: 19 ± 0.2 mm

## CCN1CCN(C(=O)N[C@@H](C(=O)N[C@@H]2C(=O)N3C(C(=O)O)=C(CSc4nnnn4C)CS[C@H]23)c2ccc(O)cc2)C(=O)C1=O [Cefoperazone]
[1]
  Diameter of the culture's inhibited growth area: 15 ± 0.2 mm
[2]; B. licheniformis VKPM B-8610
  Diameter of the culture's inhibited growth area: 13 ± 0.1 mm

## CO/N=C(\C(=O)N[C@@H]1C(=O)N2C(C(=O)O)=C(COC(C)=O)CS[C@H]12)c1csc(N)n1 [Cefotaxime]
[1]
  Diameter of the culture's inhibited growth area: 15 ± 0.1 mm
[2]; B. licheniformis VKPM B-8610
  Diameter of the culture's inhibited growth area: 9 ± 0.1 mm

## CO[C@@]1(NC(=O)Cc2cccs2)C(=O)N2C(C(=O)O)=C(COC(N)=O)CS[C@@H]21 [Cefoxitin]
[1]
  Diameter of the culture's inhibited growth area: 18 ± 0.1 mm
[2]; B. licheniformis VKPM B-8610
  Diameter of the culture's inhibited growth area: 13 ± 0.1 mm

## CC(C)(O/N=C(\C(=O)N[C@@H]1C(=O)N2C(C(=O)[O-])=C(C[n+]3ccccc3)CS[C@H]12)c1csc(N)n1)C(=O)O [Ceftazidime]
[1]
  Diameter of the culture's inhibited growth area: 6 ± 0.3 mm
[2]; B. licheniformis VKPM B-8610
  Diameter of the culture's inhibited growth area: 13 ± 0.2 mm

## CO/N=C(\C(=O)N[C@@H]1C(=O)N2C(C(=O)O)=CCS[C@H]12)c1csc(N)n1 [Ceftizoxime]
[1]
  Diameter of the culture's inhibited growth area: 3 ± 0.1 mm
[2]; B. licheniformis VKPM B-8610
  Diameter of the culture's inhibited growth area: 11 ± 0.1 mm

## CO/N=C(\C(=O)N[C@@H]1C(=O)N2C(C(=O)O)=C(CSc3nc(=O)c(=O)[nH]n3C)CS[C@H]12)c1csc(N)n1 [Ceftriaxone]
[1]
  Diameter of the culture's inhibited growth area: 20 ± 0.4 mm
[2]; B. licheniformis VKPM B-8610
  Diameter of the culture's inhibited growth area: 12 ± 0.2 mm

## CO/N=C(\C(=O)N[C@@H]1C(=O)N2C(C(=O)O)=C(COC(N)=O)CS[C@H]12)c1ccco1 [Cefuroxime]
[1]
  Diameter of the culture's inhibited growth area: 2 ± 0.1 mm
[2]; B. licheniformis VKPM B-8610
  Diameter of the culture's inhibited growth area: 3 ± 0.1 mm

## CC(=O)OCC1=C(C(=O)O)N2C(=O)[C@@H](NC(=O)Cc3cccs3)[C@H]2SC1 [Cephalothin]
[1]
  Diameter of the culture's inhibited growth area: 35 ± 0.1 mm
[2]; B. licheniformis VKPM B-8610
  Diameter of the culture's inhibited growth area: 21 ± 0.3 mm

## O=C(N[C@H](CO)[C@H](O)c1ccc([N+](=O)[O-])cc1)C(Cl)Cl [Chloramphenicol]
[1]
  Diameter of the culture's inhibited growth area: 18 ± 0.3 mm
[2]; B. licheniformis VKPM B-8610
  Diameter of the culture's inhibited growth area: 10 ± 0.1 mm

## CCC[C@@H]1C[C@@H](C(=O)N[C@@H]([C@H]2O[C@H](SC)[C@H](O)[C@@H](O)[C@H]2O)[C@H](C)Cl)N(C)C1 [Clindamycin]
[1]
  Diameter of the culture's inhibited growth area: 9 ± 0.2 mm
[2]; B. licheniformis VKPM B-8610
  Diameter of the culture's inhibited growth area: 12 ± 0.1 mm

## C[C@@H](O)[C@H]1C(=O)N2C(C(=O)O)=C(SCCN=CN)C[C@H]12 [Imipenem]
[1]
  Diameter of the culture's inhibited growth area: 38 ± 0.2 mm
[2]; B. licheniformis VKPM B-8610
  Diameter of the culture's inhibited growth area: 30 ± 0.1 mm

## NC[C@H]1O[C@H](O[C@H]2[C@H](O)[C@@H](O[C@H]3O[C@H](CO)[C@@H](O)[C@H](N)[C@H]3O)[C@H](N)C[C@@H]2N)[C@H](O)[C@@H](O)[C@@H]1O [Kanamycin]
[1]
  Diameter of the culture's inhibited growth area: 22 ± 0.2 mm
[2]; B. licheniformis VKPM B-8610
  Diameter of the culture's inhibited growth area: 21 ± 0.1 mm

## COc1cccc(OC)c1C(=O)N[C@@H]1C(=O)N2[C@@H]1SC(C)(C)[C@@H]2C(=O)O [Methicillin]
[1]
  Diameter of the culture's inhibited growth area: 20 ± 0.1 mm
[2]; B. licheniformis VKPM B-8610
  Diameter of the culture's inhibited growth area: 10 ± 0.1 mm

## CC1(C)S[C@@H]2[C@H](NC(=O)[C@H](NC(=O)N3CCN(S(C)(=O)=O)C3=O)c3ccccc3)C(=O)N2[C@H]1C(=O)O [Mezlocillin]
[1]
  Diameter of the culture's inhibited growth area: 21 ± 0.2 mm
[2]; B. licheniformis VKPM B-8610
  Diameter of the culture's inhibited growth area: 15 ± 0.2 mm

## CO[C@@]1(NC(=O)C(C(=O)O)c2ccc(O)cc2)C(=O)N2C(C(=O)O)=C(CSc3nnnn3C)CO[C@@H]21 (stereo partly shown) [Moxalactam]
[1]
  Diameter of the culture's inhibited growth area: 11 ± 0.2 mm
[2]; B. licheniformis VKPM B-8610
  Diameter of the culture's inhibited growth area: 12 ± 0.3 mm

## CCn1cc(C(=O)O)c(=O)c2ccc(C)nc21 [Nalidixic acid]
[1]
  Diameter of the culture's inhibited growth area: 21 ± 0.1 mm
[2]; B. licheniformis VKPM B-8610
  Diameter of the culture's inhibited growth area: 15 ± 0.1 mm

## O=C1CN(/N=C/c2ccc([N+](=O)[O-])o2)C(=O)N1 [Nitrofurantoin]
[1]
  Diameter of the culture's inhibited growth area: 15 ± 0.2 mm
[2]; B. licheniformis VKPM B-8610
  Diameter of the culture's inhibited growth area: 20 ± 0.1 mm

## CCn1cc(C(=O)O)c(=O)c2cc(F)c(N3CCNCC3)cc21 [Norfloxacin]
[1]
  Diameter of the culture's inhibited growth area: 24 ± 0.2 mm
[2]; B. licheniformis VKPM B-8610
  Diameter of the culture's inhibited growth area: 25 ± 0.2 mm

## Cc1onc(-c2ccccc2)c1C(=O)N[C@@H]1C(=O)N2[C@@H]1SC(C)(C)[C@@H]2C(=O)O [Oxacillin]
[1]
  Diameter of the culture's inhibited growth area: 15 ± 0.3 mm
[2]; B. licheniformis VKPM B-8610
  Diameter of the culture's inhibited growth area: 11 ± 0.1 mm

## CCN1CCN(C(=O)N[C@@H](C(=O)N[C@@H]2C(=O)N3[C@@H]2SC(C)(C)[C@@H]3C(=O)O)c2ccccc2)C(=O)C1=O [Piperacillin]
[1]
  Diameter of the culture's inhibited growth area: 15 ± 0.3 mm
[2]; B. licheniformis VKPM B-8610
  Diameter of the culture's inhibited growth area: 11 ± 0.1 mm

## CN(C)[C@@H]1C(O)=C(C(N)=O)C(=O)[C@@]2(O)C(O)=C3C(=O)c4c(O)cccc4[C@@](C)(O)[C@H]3C[C@@H]12 [Tetracycline]
[1]
  Diameter of the culture's inhibited growth area: 26 ± 0.1 mm
[2]
  Diameter of the culture's inhibited growth area: 24 ± 0.1 mm

## CC1(C)S[C@@H]2[C@H](NC(=O)[C@H](C(=O)O)c3ccsc3)C(=O)N2[C@H]1C(=O)O [Ticarcillin]
[1]
  Diameter of the culture's inhibited growth area: 25 ± 0.4 mm
[2]; B. licheniformis VKPM B-8610
  Diameter of the culture's inhibited growth area: 21 ± 0.2 mm

## NC[C@H]1O[C@H](O[C@H]2[C@H](O)[C@@H](O[C@H]3O[C@H](CO)[C@@H](O)[C@H](N)[C@H]3O)[C@H](N)C[C@@H]2N)[C@H](N)C[C@@H]1O [Tobramycin]
[1]
  Diameter of the culture's inhibited growth area: 25 ± 0.1 mm
[2]; B. licheniformis VKPM B-8610
  Diameter of the culture's inhibited growth area: 20 ± 0.2 mm

## COc1cc(Cc2cnc(N)nc2N)cc(OC)c1OC [Trimethoprim]
[1]
  Diameter of the culture's inhibited growth area: 23 ± 0.1 mm
[2]; B. licheniformis VKPM B-8610
  Diameter of the culture's inhibited growth area: 25 ± 0.2 mm

## CN[C@H](CC(C)C)C(=O)N[C@H]1C(=O)N[C@@H](CC(N)=O)C(=O)N[C@H]2C(=O)N[C@H]3C(=O)N[C@H](C(=O)N[C@H](C(=O)O)c4cc(O)cc(O)c4-c4cc3ccc4O)[C@H](O)c3ccc(c(Cl)c3)Oc3cc2cc(c3O[C@@H]2O[C@H](CO)[C@@H](O)[C@H](O)[C@H]2O[C@H]2C[C@](C)(N)[C@H](O)[C@H](C)O2)Oc2ccc(cc2Cl)[C@H]1O [Vancomycin]
[1]
  Diameter of the culture's inhibited growth area: 12 ± 0.1 mm
[2]; B. licheniformis VKPM B-8610
  Diameter of the culture's inhibited growth area: 10 ± 0.1 mm

## Gentamicin
[1]
  Diameter of the culture's inhibited growth area: 25 ± 0.3 mm
[2]; B. licheniformis VKPM B-8610
  Diameter of the culture's inhibited growth area: 19 ± 0.2 mm

## Polymyxin B
[1]
  Diameter of the culture's inhibited growth area: 11 ± 0.1 mm
[2]; B. licheniformis VKPM B-8610
  Diameter of the culture's inhibited growth area: 10 ± 0.2 mm
